{"source": "patent US9328360B2", "about": "“Conversion of glycerol to 1,3-propanediol under haloalkaline conditions” (The Curators of the University of Missouri, priority 2013, dated 2016)", "assay_type_in_all_cases": "cell-based, Halanaerobium hydrogeniformans", "key": {"H. hydrogeniformans [1]": {"system": "H. hydrogeniformans", "experiment": "Requirement of B12: 1,3-propanediol production from 30 mM glycerol over a vitamin B12 gradient (HPLC)", "conditions": "for Percent mole/mole conversion of glycerol to 1,3-propanediol / 1,3-propanediol produced: 30 mM glycerol", "procedure": "(§1) Anaerobic cultures were prepared in 160 mL serum bottles. The medium was prepared by boiling to degas under a N2 blanket. As the medium cooled, reductant stock mix was added to the media that contained 0.75 g Na2S and 0.6 g cysteine per liter. Once the media was cooled, the flasks were transferred into a Coy anaerobic glove bag where the 50 mL of media was dispensed into 160 mL serum bottles filled and autoclaved (121° C., 20 min). After autoclaving, the headspace gas was exchanged for 80% N2/20% CO2 mixture. The bottles then were inoculated with a 10% inoculum from previous stock cultures. 30 mM glycerol was added. Vitamin B12 supplementation from anaerobic, filter-sterilized stocks were added right before inoculation at 0 μg/L, 25 μg/L, 50 μg/L, 75 μg/L, and 100 μg/L.\nSamples were taken every 24 hours. 5 mL syringes were degassed with N2/CO2 mix, and 1 mL of culture sample was removed for each of the sample periods. The sample was placed in a 1.5 mL Eppendorf tube, and centrifuged for 5 min at 13,000×g. The supernatant was decanted into another 1.5 mL Eppendorf tube, and frozen for HPLC analysis.\nFor HPLC analysis, filter sterilized samples ([…] PTFE filters) were injected onto a 300×7.8 mm Aminex HPX-87H column (BioRad, Hercules, Calif.) maintained at 50° C. The mobile phase was 2.5 mM H2SO4 maintained at a constant flow rate of 0.6 ml/min and at approximately 2.2 MPa. Detection was done with both a UV 231 (at 210 nm) and refractive index monitor."}, "H. hydrogeniformans [2]": {"system": "H. hydrogeniformans", "experiment": "Tolerance of H. hydrogeniformans to glycerol (growth by turbidity)", "conditions": "7% NaCl, pH 11", "procedure": "as §1, with “The tolerance of H. hydrogeniformans to concentrations of glycerol was examined. Anaerobic” for “Anaerobic”, “Sterilized” for “30 mM”, “was” for “was added. Vitamin B12 supplementation from anaerobic, filter-sterilized stocks were”, “to the serum bottles to achieve 7.5, 15, 30, 60, 120, 240, 480, 960, and 1920 mM. Growth was examined by turbidity readings taken” for “right before inoculation”, “[…].” for “0 μg/L, 25 μg/L, 50 μg/L, 75 μg/L, and 100 μg/L.”"}, "H. hydrogeniformans [3]": {"system": "H. hydrogeniformans", "experiment": "Tolerance of H. hydrogeniformans to 1,3-propanediol (growth by turbidity)", "conditions": "for Growth: 30 mM glycerol", "procedure": "The tolerance of H. hydrogeniformans to increasing concentrations of 1,3-propanediol was examined. Anaerobic cultures were prepared in 160 mL serum bottles. The medium was prepared by boiling to degas under a N2 blanket. As the medium cooled, reductant stock mix was added to the media that contained 0.75 g Na2S and 0.6 g cysteine per liter. Once the media was cooled, the flasks were transferred into a Coy anaerobic glove bag where the 50 mL of media was dispensed into 160 mL serum bottles filled and autoclaved (121° C., 20 min). After autoclaving, the headspace gas was exchanged for 80% N2/20% CO2 mixture. The bottles then were inoculated with a 10% inoculum from previous stock cultures and amended with 30 mM glycerol. Sterilized 1,3-propanediol was added to the serum bottles to achieve 10, 30, 60, 120, 380, and 750 mM. Growth was examined by turbidity readings taken at […]."}}}
{"compound": "vitamin B12", "values": [{"measurement": "Percent mole/mole conversion of glycerol to 1,3-propanediol", "setting": "H. hydrogeniformans [1]; B12 amendment 25 μg/L", "value": "59.1 % mol 1,3-propandiol/mol glycerol"}, {"measurement": "Percent mole/mole conversion of glycerol to 1,3-propanediol", "setting": "H. hydrogeniformans [1]; B12 amendment 50 μg/L", "value": "60.3 % mol 1,3-propandiol/mol glycerol"}, {"measurement": "Percent mole/mole conversion of glycerol to 1,3-propanediol", "setting": "H. hydrogeniformans [1]; B12 amendment 75 μg/L", "value": "60.1 % mol 1,3-propandiol/mol glycerol"}, {"measurement": "Percent mole/mole conversion of glycerol to 1,3-propanediol", "setting": "H. hydrogeniformans [1]; B12 amendment 100 μg/L", "value": "60.2 % mol 1,3-propandiol/mol glycerol"}, {"measurement": "conversion rate", "setting": "H. hydrogeniformans [1]; B12 supplementation >25 μg/L", "value": "approximately 60%"}, {"measurement": "1,3-propanediol produced", "setting": "H. hydrogeniformans [1]; culture amended with 25, 50, 75, or 100 μg/L vitamin B12", "value": "Approximately 16.5 mM"}]}
{"compound": "OCC(O)CO", "note": "[Glycerol, glycerol]", "values": [{"measurement": "Percent mole/mole conversion of glycerol to 1,3-propanediol", "setting": "H. hydrogeniformans [1]; B12 amendment 0 μg/L", "value": "31.5 % mol 1,3-propandiol/mol glycerol"}, {"measurement": "conversion rate", "setting": "H. hydrogeniformans [1]; absence of B12", "value": 31, "unit": "%"}, {"measurement": "1,3-propanediol produced", "setting": "H. hydrogeniformans [1]; no vitamin B12 provided", "value": "approximately 8.5 mM"}, {"measurement": "Growth", "setting": "H. hydrogeniformans [2]; Glycerol 7.5 mM", "value": "capable of growth"}, {"measurement": "Growth", "setting": "H. hydrogeniformans [2]; Glycerol 15 mM", "value": "capable of growth"}, {"measurement": "Growth", "setting": "H. hydrogeniformans [2]; Glycerol 30 mM", "value": "capable of growth"}, {"measurement": "Growth", "setting": "H. hydrogeniformans [2]; Glycerol 60 mM", "value": "capable of growth"}, {"measurement": "Growth", "setting": "H. hydrogeniformans [2]; Glycerol 120 mM", "value": "capable of growth"}, {"measurement": "Growth", "setting": "H. hydrogeniformans [2]; Glycerol 240 mM", "value": "capable of growth"}, {"measurement": "Growth", "setting": "H. hydrogeniformans [2]; Glycerol 480 mM", "value": "capable of growth"}, {"measurement": "Growth", "setting": "H. hydrogeniformans [2]; Glycerol 960 mM", "value": "capable of growth"}, {"measurement": "Growth", "setting": "H. hydrogeniformans [2]; Glycerol 1920 mM", "value": "capable of growth"}]}
{"compound": "OCCCO", "note": "[1,3-propanediol]", "values": [{"measurement": "Growth", "setting": "H. hydrogeniformans [3]; 1,3-propanediol 10 mM", "value": "capable of growth"}, {"measurement": "Growth", "setting": "H. hydrogeniformans [3]; 1,3-propanediol 30 mM", "value": "capable of growth"}, {"measurement": "Growth", "setting": "H. hydrogeniformans [3]; 1,3-propanediol 60 mM", "value": "capable of growth"}, {"measurement": "Growth", "setting": "H. hydrogeniformans [3]; 1,3-propanediol 120 mM", "value": "capable of growth"}, {"measurement": "Growth", "setting": "H. hydrogeniformans [3]; 1,3-propanediol 380 mM", "value": "capable of growth"}, {"measurement": "1,3-propanediol concentration at which growth is possible", "setting": "H. hydrogeniformans [3]; 7% NaCl, pH 11", "value": 380, "unit": "mM"}, {"measurement": "1,3-propanediol concentration tolerated", "setting": "H. hydrogeniformans [3]; in addition to 7% (w/v) and pH 11", "value": "at least 0.38 M"}]}
